Assay results from patent US11827628B2, “Compositions and methods for inhibition of the JAK pathway” (Rigel Pharmaceuticals, Inc., priority 2005, dated 2023).

Tested on: up-regulation of ICAM-1 (CD54) by IFNγ in U937 human monocytic cells
Test: U937 IFNγ ICAM1 FACS Assay
Type: cell-based
Conditions: Homo sapiens, U-937, U937 cells stimulated with IFNγ, ICAM-1 expression by FACS; read-out: IC50, Example 44
Summary of the method: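 Readout was the geometric-mean APC anti-ICAM-1 signal by FACS on live U937 monocytic cells, with % live cells also recorded. Cells were exposed to compounds (8 points, 3-fold dilutions, duplicates) for 30 min at 37 °C before 18–24 h of IFNγ stimulation. EC50 values were computed from the dose curve.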

Structure (SMILES)	IC50 [µM]
COc1cc(Nc2nc(Nc3ccc(S(N)(=O)=O)cc3)ncc2F)cc(OCC#N)c1OC [Compound I-1, N2-(4-Aminosulphonylphenyl)-N4-(3-cyanomethoxy-4,5-dimethoxyphenyl)-5-fluoro-2,4-pyrimidinediamine]	35.3
N#CCOc1ccc(Nc2nc(Nc3ccc(S(N)(=O)=O)cc3)ncc2F)cc1F [Compound I-44, N2-(4-Aminosulfonylphenyl)-N4-(4-cyanomethoxy-3-fluorophenyl)-5-fluoro-2,4-pyrimidinediamine]	5.07
COc1cc(Nc2nc(Nc3ccc(S(N)(=O)=O)cc3)ncc2F)ccc1OCC#N [Compound I-45, N2-(4-Aminosulfonylphenyl)-N4-(4-cyanomethoxy-3-methoxyphenyl)-5-fluoro-2,4-pyrimidinediamine]	3.64
COc1cc(Nc2nc(Nc3cccc(S(N)(=O)=O)c3)ncc2F)ccc1OCC#N [Compound I-46, N2-(3-Aminosulfonylphenyl)-N4-(4-cyanomethoxy-3-methoxyphenyl)-5-fluoro-2,4-pyrimidinediamine]	0.751
COc1cc(Nc2nc(Nc3ccc(C)c(S(N)(=O)=O)c3)ncc2F)ccc1OCC#N [Compound I-47, N2-(3-Aminosulfonyl-4-methylphenyl)-N4-(4-cyanomethoxy-3-methoxyphenyl)-5-fluoro-2,4-pyrimidinediamine]	0.759
Cc1ccc(Nc2ncc(F)c(Nc3ccc(OCC#N)c(CO)c3)n2)cc1S(N)(=O)=O [Compound I-51, N2-(3-Aminosulfonyl-4-methylphenyl)-N4-(4-cyanomethoxy-3-hydroxymethylphenyl)-5-fluoro-2,4-pyrimidinediamine]	32.2
N#CCOc1ccc(Nc2nc(Nc3ccc(S(N)(=O)=O)cc3)ncc2F)cc1-c1ccn(CC#N)n1 [Compound I-52, N2-(4-Aminosulfonylphenyl)-N4-[4-cyanomethoxy-3-(1-cyanomethylpyrazol-3-yl)phenyl]-5-fluoro-2,4-pyrimidinediamine]	68.7
COc1ccc(Nc2ncc(F)c(Nc3ccc(OCC#N)cc3)n2)cc1S(N)(=O)=O [Compound I-56, N2-(3-Aminosulfonyl-4-methoxyphenyl)-N4-(4-cyanomethoxyphenyl)-5-fluoro-2,4-pyrimidinediamine]	0.424
Cc1cnc(Nc2cccc(S(N)(=O)=O)c2)nc1Nc1ccc(OCC#N)cc1 [Compound I-58, N2-(3-Aminosulfonylphenyl)-N4-(4-cyanomethoxyphenyl)-5-methyl-2,4-pyrimidinediamine]	0.066
Cc1ccc(Nc2ncc(C)c(Nc3ccc(OCC#N)cc3)n2)cc1S(N)(=O)=O [Compound I-59, N2-(3-Aminosulfonyl-4-methylphenyl)-N4-(4-cyanomethoxyphenyl)-5-methyl-2,4-pyrimidinediamine]	0.0577
NC(=O)COc1ccc(Nc2nc(Nc3ccc(S(N)(=O)=O)cc3)ncc2F)cc1Cl [Compound I-97, N4-(4-Aminocarbonylmethoxy-3-chlorophenyl)-N2-(4-aminosulfonylphenyl)-5-fluoro-2,4-pyrimidinediamine]	27.4
NC(=O)COc1ccc(Nc2nc(Nc3cccc(S(N)(=O)=O)c3)ncc2F)cc1Cl [Compound I-98, N4-(4-Aminocarbonylmethoxy-3-chlorophenyl)-N2-(3-aminosulfonylphenyl)-5-fluoro-2,4-pyrimidinediamine]	11
Cc1ccc(Nc2ncc(F)c(Nc3ccc(OCC(N)=O)c(Cl)c3)n2)cc1S(N)(=O)=O [Compound I-99, N4-(4-Aminocarbonylmethoxy-3-chlorophenyl)-N2-(3-aminosulfonyl-4-methylphenyl)-5-fluoro-2,4-pyrimidinediamine]	3.78
NC(=O)COc1ccc(Nc2nc(Nc3cccc(S(N)(=O)=O)c3)ncc2F)cc1F [Compound I-101, N4-(4-Aminocarbonylmethoxy-3-fluorophenyl)-N2-(3-aminosulfonylphenyl)-5-fluoro-2,4-pyrimidinediamine]	36.6
